Results: paper PMC12627862, “Therapeutic targeting of endothelial calcium signaling accelerates the resolution of lung injury” (Signal Transduction and Targeted Therapy, 2025)
Read-outs that look alike come from different tables or passages of the source. Starred links: 1 amine or outer side, 2 acyl side, 3 side chain; linkers in the order of their positions; H or OH if unused. Positions of bridges follow the written chain, without caps; N, C: chain ends. Non-standard residues stand in square brackets, D forms with d. Residues, ends and D or L forms follow the SMILES beside them. ξ: configuration not given here. X2 = C[C@@](CCCCC=[*:3])(N[*:1])C(=O)[*:2]; Oic = O=C(O)[C@@H]1C[C@@H]2CCCC[C@@H]2N1; GABOB(3R) = O=C(C[C@@H](O)CN[*:1])[*:2]; d(tBuAla) = CC(C)(C)C[C@@H](N)C(=O)O; dVal(3-OH) = CC(C)(O)[C@@H](N)C(=O)O; tBuAla = CC(C)(C)C[C@H](N)C(=O)O; ξVal(3-OH) = CC(C)(O)C(N)C(=O)O; R5 = C=CCCC[C@@](C)(N)C(=O)O; X1 = O=C(CC(O)CN[*:1])[*:2]; 4Amb = NCc1ccc(C(=O)O)cc1

Experiments:
[1] = system: mice challenged with a PAR-1 agonist peptide; test: PAR-1 agonist peptide-induced microvascular leakage in lung; assay type: in vivo, mouse; conditions: i.v. 1 µmol/kg bw pretreatment; n = 5–7 mice per group
Method: The levels of EBA extravasation in the lungs of mice challenged with PAR-1 AP and treated with these compounds were similar to those observed in control mice treated with a control PAR-1 AP ([…]-NH2), in which the positions of the first two amino acids were reversed.
PAR-1 agonist peptide-induced microvascular leakage in lung. […] Mice treated with PAR-1 control peptide ([…]-NH2) was used as negative control. For Evan’s blue albumin extravasation, Evans’s blue-labeled albumin was administered at the same time as the PAR-1 AP. Vehicle-treated mice were used as treatment control.
Evans’ blue-labeled albumin extravasation. To evaluate vascular permeability in lung tissues, mice were injected intravenously with Evans' blue-labeled albumin (25 mg/kg) 30 minutes before the collection of lung tissues. The lungs were perfused via the right ventricle with warmed phosphate-buffered saline to remove intravascular dye, and the right atrium was excised to facilitate clearance. […] The optical density of the supernatant was measured spectrophotometrically at 620 nm (Evans Blue) and 740 nm (hemoglobin correction), with the dye content normalized to the wet weight of the lungs. Corrections for hemoglobin were made as follows: Corrected absorbance (Evans blue) = Absorbance (620) - (1.426 × Absorbance (740) + 0.03). […]

[2] = biological target: EB3 interactions with IP3R3-GFP (Homo sapiens, UniProt Q9UPY8); test: Competitive binding: inhibition of EB3 interaction with IP3R3-GFP in vitro; assay type: biochemical; conditions: 250 nM
Chain of EB3 interactions with IP3R3-GFP (Q9UPY8 whole entry): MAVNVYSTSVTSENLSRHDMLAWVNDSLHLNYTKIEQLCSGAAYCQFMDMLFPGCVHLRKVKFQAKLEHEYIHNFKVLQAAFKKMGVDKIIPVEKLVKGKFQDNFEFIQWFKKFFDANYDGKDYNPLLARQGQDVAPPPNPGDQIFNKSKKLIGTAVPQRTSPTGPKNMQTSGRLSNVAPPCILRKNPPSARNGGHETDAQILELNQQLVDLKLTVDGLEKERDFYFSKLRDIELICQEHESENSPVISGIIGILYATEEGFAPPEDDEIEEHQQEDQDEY
Text: We tested the efficacy of twenty-three compounds in inhibiting EB3 interactions with IP3R3-GFP via an in vitro approach developed by us[12],[13]. […] Guided by NMR studies, we predicted the binding pose of 109 to EB3 via AutoDock Vina[13],[24],[25].

[3] = system: CD1 mice challenged with LD90 of LPS; test: Endotoxin-induced septic shock (LD90 LPS): survival and lung compliance; assay type: in vivo, mouse; conditions: for half maximal effective concentration (EC50) on the survival rate: LPS 30 mg/kg bw i.p. (LD90), i.v. once daily, three doses, from 20 hours after LPS, n = 10 mice per group
Method: To establish the effect of VT-109 on clinically translatable outcomes, we investigated its dose-dependent effect on survival rates in a murine model of septic shock (Fig. 5a, d). In experiments involving endotoxin-induced septic shock, mice were injected intraperitoneally with a lethal dose (LD) of LPS at 30 mg/kg bw, which caused 90% mortality. The treatment cohort of mice received i.v. VT-109 at doses ranging from 1 nmol/kg to 2 µmol/kg bw, which were administered once daily for a total of three doses. All the mice also received fluid resuscitation once a day for three days.
We next examined the effect of VT-109 on lung function at 250 nmol/kg bw, the dose that produced the greatest improvement in survival rates (Fig. 5a). Lung function was assessed by measuring lung compliance in mice challenged with a lethal dose of LPS (Fig. 5c). For the control, we used a non-effective dose of VT-109 at 1 nmol/kg bw, as 90% of the mice died before reaching 48 hours post-LPS treatment if left untreated. The 1 nmol/kg bw dose was not efficacious in our mortality studies but did delay death over a 48-hour period. Static lung compliance was measured at 10 cmH2O on the expiratory limb of a P‒V loop via the Salazar–Knowles equation[49].
In the survival studies, mice received i.p. corn oil at a dose of 0.35 mL two days before the challenge. CD1 mice were injected intraperitoneally with a lethal dose 90 (LD90) of LPS (Santa Cruz Biotechnology). In most experiments, this dose was 30 mg/kg bw; however, it was adjusted for each new batch of LPS in pilot studies. In the survival study, treatment with varying doses of VT-109 (1, 10, 100, 250, 500, and 2000 nmol/kg bw) was initiated 20 hours after the LPS challenge. In the lung compliance study, a non-efficacious dose (1 nmol/kg bw) of VT-109 was used as a control, while 250 nmol/kg bw of VT-109 was used for the experimental group. Both treatments were administered intravenously 20 hours after the LPS challenge. All mice received 1 mL of prewarmed saline daily for 3 days.

[4] = Lipophilicity of peptides, logP(oct/wat); assay type: physicochemical
How it was run: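 Shake-flask partition between n-octanol and phosphate buffer, each phase pre-saturated with the other; peptides dissolved in buffer, partitioned at several octanol:water ratios, shaken 1 h at room temperature. After equilibration both phases assayed for peptide; logP = log(octanol/water concentration ratio).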

[5] = Aggregation / solubility at 1 mM; assay type: physicochemical; conditions: summary calls it solubility at 1mM
How it was run: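 Solubility and aggregation of compounds were assessed experimentally at 1 mM. Lipophilicity was determined as octanol/water partition coefficient, logP(oct/wat).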

[6] = Stability of selected EB3 inhibitors in human blood plasma; assay type: in vitro ADME
Method: Supplementary Table 3. Stability of selected EB3 inhibitors in human blood plasma. The indicated inhibitors were incubated with human plasma at 37 °C and samples were taken at the indicated time points. Plasma proteins were precipitated with ice-cold perchloric acid (60%); the concentration of compounds was measured in supernatant using a liquid chromatography-tandem mass spectrometry (LC-MS/MS). See also Figures 1 and 2.

[7] = Stability at various storage conditions; assay type: physicochemical; conditions: for amount of peptide remaining after storage: phosphate-buffered sterile saline, 8 days, LC-MS/MS
Method: Stability assay of peptides in various storage conditions. Peptides were dissolved and stored in phosphate-buffered sterile saline at -20, 4, 37, and 60°C for 8 days. The amount of peptide remaining after the study was analyzed by LC-MS/MS.
Supplementary Table 5. Stability of selected compounds at various storage conditions. Preliminary accelerated storage stability at various temperature conditions for the selected inhibitors was tested in phosphate-buffered sterile saline at -20 °C, 4 °C, 37 °C and 60 °C for 8 days. See also Figures 1 and 2.

HLMVECs = test: Transendothelial electrical resistance (TEER) assay; assay type: cell-based, human; conditions: 1 µM, 1 hour pretreatment, 50 nM α-thrombin; to the same extent as EBIN

CC(C)(C)C[C@@H]1NC(=O)[C@](C)(NC(=O)c2ccc(CNC(=O)[C@H](N)C(C)(C)O)cc2)CCC/C=C\CCCC[C@@](C)(C(=O)N[C@H](CC(C)(C)C)C(=O)O)NC(=O)CC(O)CNC(=O)[C@@H]2C[C@@H]3CCCC[C@@H]3N2C1=O (stereo partly drawn) [compound 108, (2R)-2-((8S,18R,21S,23aS,27aS,28aS,Z)-18-(4-(((R)-2-amino-3-hydroxy-3-methylbutanamido)methyl)benzamido)-4-hydroxy-8,18-dimethyl-21-neopentyl-1,6,19,22-tetraoxo-1,2,3,4,5,6,7,8,9,10,11,12,15,16,17,18,19,20,21,22,23a,24,25,26,27,27a,28,28a-octacosahydro-[1,4,7,12]tetraazacyclotetracosino[4,5-a]indole-8-carboxamido)-4,4-dimethylpentanoic acid] (H-[dVal(3-OH)][4Amb][R5][tBuAla][Oic][X1][X2][d(tBuAla)]-OH; staple (Z) 3-7)
PAR-1-mediated capillary leakage in the lung (EBA extravasation) [1]: completely blocked
inhibition at 0.25 µM [2]: 55%
half maximal effective concentration (EC50) on the survival rate [3]: 308 nmol/kg bw
logD ([4]; shake-flask n-octanol/phosphate buffer, mutually saturated, shaken 1 hour at room temperature, read-out: Log P (Octanol/Water)): 0.46
Aggregation at 1mM [5]: weak signal
remaining at 1.5 h ([6]; human plasma, 37 °C, 1.5 hr, perchloric acid (60%) precipitation, LC-MS/MS, read-out: compound remaining in human plasma): 80%
remaining at 20 h ([6]; human plasma, 37 °C, 20 hr, perchloric acid (60%) precipitation, LC-MS/MS, read-out: compound remaining in human plasma): 65%
amount of peptide remaining after storage ([7]; 4 °C): 102%
amount of peptide remaining after storage ([7]; 37 °C): 104%
amount of peptide remaining after storage ([7]; 60 °C): 104%
amount of peptide remaining after storage ([7]; -20 °C): 104%
storage stability ([7]; various storage and temperature conditions): stable
α-thrombin-induced changes in TEER (HLMVECs): attenuated

CC(C)(C)C[C@@H]1NC(=O)C[C@@H](O)CNC(=O)[C@@H]2C[C@@H]3CCCC[C@@H]3N2C(=O)[C@H](CC(C)(C)C)NC(=O)c2ccc(cc2)CNC(=O)C(C(C)(C)O)NC(=O)[C@@H](Cc2ccccc2)NC1=O (stereo partly drawn) [compound 109, (1^2S,1^3aS,1^7aS,3S,10S,13R,16S,20R)-13-benzyl-20-hydroxy-10-(2-hydroxypropan-2-yl)-3,16-dineopentyl-1^2,1^3,1^3a,1^4,1^5,1^6,1^7,1^7a-octahydro-1^1H-4,8,11,14,17,22-hexaaza-1(1,2)-indola-6(1,4)-benzenacyclotricosaphane-2,5,9,12,15,18,23-heptaone.] (cyclo([4Amb][tBuAla][Oic][GABOB(3R)][tBuAla][dF][ξVal(3-OH)]))
PAR-1-mediated capillary leakage in the lung (EBA extravasation) [1]: completely blocked
inhibition at 0.25 µM [2]: 58%
static lung compliance ([3]; LD90 LPS, 250 nmol/kg bw i.v., at 10 cmH2O, n = 3‒4): 0.043 ± 0.001 ml/cm H₂O
half maximal effective concentration (EC50) on the survival rate [3]: 30 nmol/kg bw
mortality ([3]; efficacious doses, starting at 100 nmol/kg bw or higher): reduced mortality
EC50 on the survival rate, equivalent for humans ([3]; human equivalent of 30 nmol/kg bw): 2.2 µg/kg bw
mice that died within 48 hours post-LPS challenge ([3]; lowest dose of VT-109 (1 nmol/kg)): 90%
logD [4]: 0.73
Aggregation at 1mM [5]: weak signal
remaining at 1.5 h ([6]; human, plasma): 90%
remaining at 20 h ([6]; human, plasma): 91%
storage stability [7]: stable
α-thrombin-induced changes in TEER (HLMVECs): attenuated
